# Data as given in patent EP4596574A1, “GLP-1/GCG/GIP TRIPLE-RECEPTOR AGONIST AND USE THEREOF” (Sunshine Lake Pharma Co., Ltd., priority 2022, dated 2024).
# Marks after values point to notes of the source that are not given here.
# Assay: Long-term repeated administration in diet-induced obese C57BL/6 mice (DIO)
# Assay type: in vivo, C57/BL6 mice
# Description: Experimental methods: C57/BL6 mice were randomly divided into a normal group (NFD) and a model group (HFD) at the fifth week of age. The normal group was fed with ordinary maintenance feed, while the other groups were fed with high-fat feed D12492. The body weight and food intake of mice were monitored every 3 weeks. After 16 weeks of feeding, the body weights of mice in the model group and the normal group were (49.0±2.3) g and (31.0±2.0) g, respectively, and the difference between the two groups was statistically significant. […] Body weight and food intake were measured before each administration. After 3 weeks of administration, an intraperitoneal glucose tolerance test was performed. The mice were slaughtered and samples were collected 72 h after the last administration. The liver weight was recorded, and the liver pathological conditions and blood biochemical indexes of each group were tested.
# [1] = 10 nmol/kg s.c. once every 3 days, D7
# [2] = 10 nmol/kg s.c. once every 3 days, D10
# [3] = 10 nmol/kg s.c. once every 3 days, D13
# [4] = 10 nmol/kg s.c. once every 3 days, D16
# [5] = 10 nmol/kg s.c. once every 3 days, D19
# [6] = 10 nmol/kg s.c. once every 3 days, D22
# [7] = 10 nmol/kg s.c. once every 3 days, D25
# [8] = 10 nmol/kg s.c. once every 3 days, D28
# [9] = long-term administration 10 nmol/kg, 72 h after the last administration
# [10] = long-term administration 10 nmol/kg, blood biochemical index
substance,measurement,setting,value
semaglutide [reference compound],Cumulative food intake (g/pcs) D7,[1],14.1 g/pcs
same,Weight gain rate (%) D7,[1],-8.1±1.7%
same,Cumulative food intake (g/pcs) D10,[2],19.4 g/pcs
same,Weight gain rate (%) D10,[2],-10.8±2.2%
same,Cumulative food intake (g/each) D13,[3],25.2 g/each
same,Weight gain rate (%) D13,[3],-13.5±3.2%
same,Cumulative food intake (g/each) D16,[4],31.5 g/each
same,Weight gain rate (%) D16,[4],-14.2±3.8%
same,Cumulative food intake (g/each) D19,[5],38.1 g/each
same,Weight gain rate (%) D19,[5],-14.2±4.1%
same,Cumulative food intake (g/each) D22,[6],45.0 g/each
same,Weight gain rate (%) D22,[6],-14.5±4.5%
same,Cumulative food intake (g/each) D25,[7],51.6 g/each
same,Weight gain rate (%) D25,[7],-16.5±4.1%
same,Cumulative food intake (g/each) D28,[8],58.9 g/each
same,Weight gain rate (%) D28,[8],-18.5±5.1%
same,Cumulative food intake (g/each) D30,"10 nmol/kg s.c. once every 3 days, D30",63.9^a g/each
same,Weight gain rate (%) D31,"10 nmol/kg s.c. once every 3 days, D31",-17.4±4.9^a %
same,Cumulative food intake (g/pcs) D0,"10 nmol/kg s.c., D0",2.6 g/pcs
same,Weight gain rate (%) D0,"10 nmol/kg s.c., D0",0.0±0.0%
same,Cumulative food intake (g/pcs) D1,"10 nmol/kg s.c., D1",2.9 g/pcs
same,Weight gain rate (%) D1,"10 nmol/kg s.c., D1",-6.8±0.6%
same,Cumulative food intake (g/pcs) D2,"10 nmol/kg s.c., D2",4.0 g/pcs
same,Weight gain rate (%) D2,"10 nmol/kg s.c., D2",-7.1±1.1%
same,Cumulative food intake (g/pcs) D3,"10 nmol/kg s.c., D3",6.4 g/pcs
same,Weight gain rate (%) D3,"10 nmol/kg s.c., D3",-5.2±1.3%
same,Cumulative food intake (g/pcs) D4,"10 nmol/kg s.c., D4",9.3 g/pcs
same,Weight gain rate (%) D4,"10 nmol/kg s.c., D4",-3.8±1.3%
same,Liver index/%,[9],3.0±0.0^a %
same,Liver/g,[9],1.1±0.1^a g
same,Weight/g,[9],38.3±2.9^a g
same,ALT (U/L),[10],45.4±14.6^a U/L
same,AST (U/L),[10],131.2±19.2^a U/L
same,CHOL (mmol/L),[10],4.5±0.6^a mmol/L
same,TRIGL (mmol/L),[10],0.6±0.1^a mmol/L
